Laboratory results taken from patent US8927570B2, “1-naphthyl-or 1-dihydroacenaphthenyl-pyrido[B]indoles and uses thereof in treating cancers” (priority 2009, dated 2015).

What was measured:
[1] = test system: Panc-1 pancreatic cancer cell line; assay: In vitro antiproliferative activity, Panc-1 pancreatic cancer cell line; assay type: cell-based, human
Description: (§1) Substituted β-carbolines and analog compounds 39 to 57 were tested for antiproliferative activity against HPAC, Mia-PaCa2 and Panc-1 pancreatic cancer cell lines and MCF-7 and MDA-MB-468 breast cancer cell lines. Table 2 lists the IC50 values for the substituted β-carbolines and analogs thereof.

[2] = test system: Mia-PaCa2 pancreatic cancer cell line; assay: In vitro antiproliferative activity, Mia-PaCa2 pancreatic cancer cell line; assay type: cell-based
Description: (§2) Substituted β-carboline compounds 4 to 38 were tested for antiproliferative activity against HCT116 colon cancer cells and HPAC, Mia-PaCa2 and Panc-1 pancreatic cancer cell lines. Table 1 lists the IC50 values for the substituted β-carbolines.
as §1

[3] = test system: HPAC pancreatic cancer cell line; assay: In vitro antiproliferative activity, HPAC pancreatic cancer cell line; assay type: cell-based
Description: as §2, §1

[4] = test system: MDA-MB-468 breast cancer cell line; assay: In vitro antiproliferative activity, MDA-MB-468 breast cancer cell line; assay type: cell-based, human; details: Table 2
Description: as §1

[5] = test system: MCF-7 breast cancer cell line; assay: In vitro antiproliferative activity, MCF-7 breast cancer cell line; assay type: cell-based, human
Description: as §1

[6] = test system: HCT116 colon cancer cells; assay: In vitro antiproliferative activity, HCT116 colon cancer cells; assay type: cell-based; details: Homo sapiens, HCT-116, Table 1
Description: as §2

[7] = Homo sapiens, MIA PaCa-2, Table 1
[8] = Homo sapiens, MIA PaCa-2, Table 2

IC50 ([1]; Homo sapiens, Table 1) [µM] | IC50 [2, 7] [µM] | IC50 ([3]; Homo sapiens, Table 1) [µM] | IC50 [6] [µM] | Compound | other results
 |  |  |  | 1-(1,2-Dihydroacenaphth alen-5-yl)-6-methoxy-9H-pyrido[3,4-b]indole [Compound 47] | IC50 ([1]; Table 2): > 50 µM; IC50 ([2]; Table 2): 2.95 µM; IC50 ([3]; Table 2): 4.79 µM; IC50 [4]: 4.47 µM; IC50 ([5]; Table 2): 6.42 µM
> 50 | 44.8 | > 50 |  | COc1ccc2c(c1)[nH]c1c(-c3cccnc3)nccc12 [Compound 5, 1-Pyridin-3-yl-7-methoxy-9H-β-carboline] | 
> 50 | 38.3 | 45.1 |  | COc1ccc2c(c1)[nH]c1c(-c3ccoc3)nccc12 [Compound 8, 1-Furan-3-yl-7-methoxy-9H-β-carboline] | 
> 50 | 49.2 | 34.8 |  | COc1ccc2c(c1)[nH]c1c(-c3nccc4ccccc34)nccc12 [Compound 12, 1-Isoquinolin-1-yl-7-methoxy-9H-β-carboline] | 
> 50 | > 50 | > 50 | 26.1 | COc1ccc2[nH]c3c(-c4cccc5nccnc45)nccc3c2c1 [Compound 13, 6-Methoxy-1-quinoxalin-5-yl-9H-β-carboline] | 
> 50 | > 50 | > 50 | 49.6 | COc1ccc2c(c1)[nH]c1c(-c3cccc4nccnc34)nccc12 [Compound 14, 7-Methoxy-1-quinoxalin-5-yl-9H-β-carboline] | 
10.5 | 4.7 | 7.37 | 5.7 | COc1ccc2[nH]c3c(-c4cncc5ccccc45)nccc3c2c1 [Compound 15, 1-Isoquinolin-4-yl-6-methoxy-9H-β-carboline] | 
> 50 | 36.7 | 44.9 | 33.5 | COc1ccc2c(c1)[nH]c1c(-c3cncc4ccccc34)nccc12 [Compound 16, 1-Isoquinolin-4-yl-7-methoxy-9H-β-carboline] | 
29 | 17 | 21.9 | 14.1 | COc1ccc2[nH]c3c(-c4cnc5ccccc5c4)nccc3c2c1 [Compound 17, 6-Methoxy-1-quinolin-3-yl-9H-β-carboline] | 
37.2 | 16.7 | 14.5 | 13.1 | COc1ccc2c(c1)[nH]c1c(-c3cnc4ccccc4c3)nccc12 [Compound 18, 7-Methoxy-1-quinolin-3-yl-9H-β-carboline] | 
> 50 | 6.61 | 25.5 | 3.6 | COc1ccc2c(c1)[nH]c1c(-c3cccc4ccccc34)nccc12 [Compound 20, 7-Methoxy-1-naphthalen-1-yl-9H-β-carboline] | 
7.52 | 2.58 | 5.83 | 0.9 | COc1ccc2[nH]c3c(-c4cccc5ncccc45)nccc3c2c1 [Compound 21, 6-Methoxy-1-quinolin-5-yl-9H-β-carboline] | 
> 50 | 28.6 | > 50 | 12.8 | COc1ccc2c(c1)[nH]c1c(-c3cccc4ncccc34)nccc12 [Compound 22, 7-Methoxy-1-quinolin-5-yl-9H-β-carboline] | 
21.2 | 9.81 | 15.9 | 9 | COc1ccc2[nH]c3c(-c4cccc5cnccc45)nccc3c2c1 [Compound 23, 1-Isoquinolin-5-yl-6-methoxy-9H-β-carboline] | 
> 50 | 24.1 | 34.4 | 15.1 | COc1ccc2c(c1)[nH]c1c(-c3cccc4cnccc34)nccc12 [Compound 24, 1-Isoquinolin-5-yl-7-methoxy-9H-β-carboline] | 
8.4 | 1.36 | 5.57 | 0.67 | COc1ccc2[nH]c3c(-c4ccc5ccccc5c4)nccc3c2c1 [Compound 25, 6-Methoxy-1-naphthalen-2-yl-9H-β-carboline] | 
48 | 21.7 | 20.8 | 17.1 | COc1ccc2c(c1)[nH]c1c(-c3ccc4ccccc4c3)nccc12 [Compound 26, 7-Methoxy-1-naphthalen-2-yl-9H-β-carboline] | 

IC50 ([1]; Homo sapiens, Table 1) [µM] | IC50 [2, 7] [µM] | IC50 ([3]; Homo sapiens, Table 1) [µM] | IC50 [6] [µM] | Compound | other results
10.5 | 2.43 | 6.08 | 2.1 | COc1ccc2[nH]c3c(-c4c5ccccc5cc5ccccc45)nccc3c2c1 [Compound 27, 1-Anthracen-9-yl-6-methoxy-9H-β-carboline] | 
14.9 | 3.59 | 5.47 | 1.7 | COc1ccc2c(c1)[nH]c1c(-c3c4ccccc4cc4ccccc34)nccc12 [Compound 28, 1-Anthracen-9-yl-7-methoxy-9H-β-carboline] | 
> 50 | 34.3 | 34.3 | 31.4 | COc1ccc2c(c1)[nH]c1c(-c3ccccc3)nccc12 [Compound 32, 7-Methoxy-1-phenyl-9H-β-carboline] | 
19.8 | 2.23 | 9.38 | 1.8 | COc1ccc2[nH]c3c(-c4c(C)ccc5ccccc45)nccc3c2c1 [Compound 33, 6-Methoxy-1-(2-methyl-naphthalen-1-yl)-9H-β-carboline] | 
33.3 | 20.7 | 17.6 | 2.43 | COc1ccc2c(c1)[nH]c1c(-c3c(C)ccc4ccccc34)nccc12 [Compound 34, 7-Methoxy-1-(2-methyl-naphthalen-1-yl)-9H-β-carboline] | 
> 50 | 47.2 | 23.1 | 2.22 | COc1ccc2c(-c3nccc4c3[nH]c3ccc(OC)cc34)cccc2c1 [Compound 35, 6-Methoxy-1-(6-methoxy-naphthalen-1-yl)-9H-β-carboline] | 
0.57 | 0.51 | 0.83 |  | c1ccc(COc2ccc3[nH]c4c(-c5cccc6ccccc56)nccc4c3c2)cc1 [Compound 36, 6-Benzyloxy-1-naphthalen-1-yl-9H-β-carboline] | 
> 50 | 3.54 | 6.39 | 2.6 | Cc1cccc2c1[nH]c1c(-c3cccc4ccccc34)nccc12 [Compound 37, 8-Methyl-1-naphthalen-1-yl-9H-β-carboline] | 
47.4 | 48.4 | 17 | 3 | COc1ccc2[nH]c3c(-c4ccc(-c5ccccn5)cc4)nccc3c2c1 [Compound 38, 6-Methoxy-1-(4-pyridin-2-yl-phenyl)-9H-β-carboline] | 
 |  |  |  | COc1cccc2c1[nH]c1c(-c3cccc4ccccc34)nccc12 [Compound 39, 8-methoxy-1-(naphthalen-1-yl)-9H-pyrido[3,4-b]indole] | IC50 ([1]; Homo sapiens, Table 2): 26.5 µM; IC50 [2, 8]: 31.9 µM; IC50 ([3]; Homo sapiens, Table 2): 20.5 µM; IC50 ([4]; Homo sapiens): > 10 µM; IC50 ([5]; Homo sapiens, MCF7, Table 2): > 10 µM
 |  |  |  | Oc1ccc2[nH]c3c(-c4cccc5ccccc45)nccc3c2c1 [Compound 40, 1-(naphthalen-1-yl)-9H-pyrido[3,4-b]indol-6-ol] | IC50 ([4]; Homo sapiens): 10.3 µM; IC50 ([5]; Homo sapiens, MCF7, Table 2): 34 µM
 |  |  |  | COc1ccc2[nH]c3c(-c4cccc5ccccc45)ncc(-c4ccccc4)c3c2c1 [Compound 41, 6-methoxy-1-(naphthalen-1-yl)-4-phenyl-9H-pyrido[3,4-b]indole] | IC50 ([1]; Homo sapiens, Table 2): > 10 µM; IC50 [2, 8]: 3.63 µM; IC50 ([3]; Homo sapiens, Table 2): 7.72 µM; IC50 ([4]; Homo sapiens): > 10 µM; IC50 ([5]; Homo sapiens, MCF7, Table 2): > 10 µM
 |  |  |  | CNS(=O)(=O)Cc1ccc2[nH]c3c(-c4cccc5ccccc45)nccc3c2c1 [Compound 42, N-methyl-1-(1-(naphthalen-1-yl)-9H-pyrido[3,4-b]indol-6-yl)methanesulfonamide] | IC50 ([1]; Homo sapiens, Table 2): 6.11 µM; IC50 [2, 8]: 0.58 µM; IC50 ([3]; Homo sapiens, Table 2): 3.83 µM; IC50 ([4]; Homo sapiens): 1.11 µM; IC50 ([5]; Homo sapiens, MCF7, Table 2): 2.04 µM
 |  |  |  | Cc1cccc2[nH]c3c(-c4cccc5ccccc45)nccc3c12 [Compound 43, 5-methyl-1-(naphthalen-1-yl)-9H-pyrido[3,4-b]indole] | IC50 ([1]; Homo sapiens, Table 2): 4.56 µM; IC50 [2, 8]: 1.17 µM; IC50 ([3]; Homo sapiens, Table 2): 4.03 µM; IC50 ([4]; Homo sapiens): 1.41 µM; IC50 ([5]; Homo sapiens, MCF7, Table 2): 7.83 µM
 |  |  |  | COc1ccc2[nH]c3c(-c4cccc5c(F)cccc45)nccc3c2c1 [Compound 44, 1-(5-fluoronaphthalen-1-yl)-6-methoxy-9H-pyrido[3,4-b]indole] | IC50 ([1]; Homo sapiens, Table 2): 2.56 µM; IC50 [2, 8]: 0.33 µM; IC50 ([3]; Homo sapiens, Table 2): 2.37 µM; IC50 ([4]; Homo sapiens): 1.2 µM; IC50 ([5]; Homo sapiens, MCF7, Table 2): 6.6 µM
 |  |  |  | COc1ccc2[nH]c3c(-c4cccc5c(Br)cccc45)nccc3c2c1 [Compound 45, 1-(5-bromonaphthalen-1-yl)-6-methoxy-9H-pyrido[3,4-b]indole] | IC50 ([1]; Homo sapiens, Table 2): 2.92 µM; IC50 [2, 8]: 1.17 µM; IC50 ([3]; Homo sapiens, Table 2): 6.18 µM; IC50 ([4]; Homo sapiens): 1.77 µM; IC50 ([5]; Homo sapiens, MCF7, Table 2): 6.85 µM

Compound | IC50 ([1]; Homo sapiens, Table 1) [µM] | IC50 [2, 7] [µM] | IC50 ([3]; Homo sapiens, Table 1) [µM] | IC50 [6] [µM] | other results
COc1ccc2[nH]c3c(-c4cc5ccccc5c5ccccc45)nccc3c2c1 [Compound 29, 6-Methoxy-1-phenanthren-9-yl-9H-β-carboline] | 18 | 0.84 | 0.54 | 0.53 | 
COc1ccc2c(c1)[nH]c1c(-c3cc4ccccc4c4ccccc34)nccc12 [Compound 30, 7-Methoxy-1-phenanthren-9-yl-9H-β-carboline] | > 50 | 1.57 | 5.67 | 0.87 | 
COc1ccc2[nH]c3c(-c4ccccc4)nccc3c2c1 [Compound 31, 6-Methoxy-1-phenyl-9H-β-carboline] | > 50 | 37.1 | 44.8 | 33.5 | 
